Results on four compounds are retold here after patent US20250034216A1, “STEREOSELECTIVE COVALENT LIGANDS FOR ONCOGENIC AND IMMUNOLOGICAL PROTEINS” (The Scripps Research Institute, priority 2021, published 2025).

Common to all, as to experiment: IA-DTB cysteine engagement
Holding throughout (type): binding
What all share (conditions): 22Rv1 cells, 20 μM probe, 1 h, relative to DMSO

One test has as its target T1, ESRP1_C551 (Homo sapiens, UniProt Q6NXG1).
T1 construct: endogenous in cells; host or cells: 22Rv1
T1 sequence (Q6NXG1 1-681): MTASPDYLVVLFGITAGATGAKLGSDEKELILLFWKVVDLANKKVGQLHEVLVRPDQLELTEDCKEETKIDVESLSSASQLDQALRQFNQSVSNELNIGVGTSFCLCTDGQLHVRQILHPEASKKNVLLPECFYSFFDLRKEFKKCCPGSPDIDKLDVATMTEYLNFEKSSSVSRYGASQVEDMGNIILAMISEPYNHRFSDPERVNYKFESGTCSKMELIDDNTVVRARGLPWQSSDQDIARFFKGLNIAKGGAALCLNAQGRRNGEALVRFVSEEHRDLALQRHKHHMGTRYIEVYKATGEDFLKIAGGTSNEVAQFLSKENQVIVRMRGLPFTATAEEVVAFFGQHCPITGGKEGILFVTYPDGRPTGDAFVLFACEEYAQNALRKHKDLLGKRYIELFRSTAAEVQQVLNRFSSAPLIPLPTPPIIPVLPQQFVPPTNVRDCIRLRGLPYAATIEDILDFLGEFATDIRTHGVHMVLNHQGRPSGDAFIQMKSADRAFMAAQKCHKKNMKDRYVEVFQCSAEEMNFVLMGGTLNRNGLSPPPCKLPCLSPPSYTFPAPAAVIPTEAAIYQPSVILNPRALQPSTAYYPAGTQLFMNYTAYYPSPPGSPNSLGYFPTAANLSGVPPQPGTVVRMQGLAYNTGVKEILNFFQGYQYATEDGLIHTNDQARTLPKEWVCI
Summed up: (§1)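 Probe-exposed cells were lysed, IA-DTB-labeled, trypsinized and streptavidin-enriched. Multiplexed TMT quantitation gave engagement ratios versus DMSO, with non-tryptic peptides excluded and intensities normalized to median summed signal.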

The next test deals with T2, NUDT8_C207 (Homo sapiens, UniProt Q8WV74).
T2 construct: endogenous in cells; host or cells: 22Rv1
T2 sequence (Q8WV74 1-236): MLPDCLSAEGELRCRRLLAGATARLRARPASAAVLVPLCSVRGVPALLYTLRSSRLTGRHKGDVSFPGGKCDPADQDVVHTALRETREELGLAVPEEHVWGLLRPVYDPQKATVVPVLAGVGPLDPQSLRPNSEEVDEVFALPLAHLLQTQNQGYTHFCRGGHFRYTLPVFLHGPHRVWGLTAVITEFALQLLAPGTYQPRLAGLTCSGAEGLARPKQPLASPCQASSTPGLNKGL
In short, it runs like this: as §1

The target in another test is T3, SLC25A20_C89 (Homo sapiens, UniProt O43772).
T3 construct: endogenous in cells; host or cells: 22Rv1
T3 sequence (O43772 1-301): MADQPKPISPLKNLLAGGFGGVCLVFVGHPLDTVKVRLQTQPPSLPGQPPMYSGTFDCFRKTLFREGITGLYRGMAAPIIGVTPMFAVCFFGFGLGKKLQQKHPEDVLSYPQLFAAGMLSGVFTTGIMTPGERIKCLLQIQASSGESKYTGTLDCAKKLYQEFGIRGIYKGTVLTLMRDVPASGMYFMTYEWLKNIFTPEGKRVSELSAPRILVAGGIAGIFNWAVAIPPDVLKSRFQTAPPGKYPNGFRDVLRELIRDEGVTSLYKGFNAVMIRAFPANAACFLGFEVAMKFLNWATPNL
In short, it runs like this:
as §1

The next test concerns the target T4, TMEM256-PLSCR3_C126 (Homo sapiens, UniProt Q9NRY6).
T4 construct: endogenous in cells; host or cells: 22Rv1
In short, it runs like this:
as §1

T4 sequence (Q9NRY6 whole entry): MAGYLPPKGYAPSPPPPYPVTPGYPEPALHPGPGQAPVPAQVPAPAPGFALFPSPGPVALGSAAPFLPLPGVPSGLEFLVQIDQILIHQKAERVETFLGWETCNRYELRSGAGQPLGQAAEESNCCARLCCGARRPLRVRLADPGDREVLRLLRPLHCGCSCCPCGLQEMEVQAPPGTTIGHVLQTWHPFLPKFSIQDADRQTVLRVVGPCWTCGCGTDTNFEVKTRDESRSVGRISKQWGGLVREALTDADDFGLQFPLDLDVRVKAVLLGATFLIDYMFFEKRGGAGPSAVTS

With `C=CC(=O)N1C[C@H](c2ccc(Br)cc2)[C@@H]1C(=O)Nc1cccc2cccnc12` [MY-1B, (2R,3S)-1-acryloyl-3-(4-bromophenyl)-N-(quinolin-8-yl)azetidine-2-carboxamide], the “% engagement ESRP1_C551” value on ESRP1_C551 was determined as 73.5%. Besides, the “% engagement NUDT8_C207” value on NUDT8_C207 was 78.5%. Further, the “% engagement SLC25A20_C89” value on SLC25A20_C89 came out at 94%. The “% engagement TMEM256-PLSCR3_C126” value at TMEM256-PLSCR3_C126 came to 86%.

As for `C=CC(=O)N1C[C@H](c2ccc(Br)cc2)[C@H]1C(=O)Nc1cccc2cccnc12` [MY-3B, (2S,3S)-1-acryloyl-3-(4-bromophenyl)-N-(quinolin-8-yl)azetidine-2-carboxamide], the “% engagement ESRP1_C551” value on ESRP1_C551 is on record as 69%. Moreover, the “% engagement NUDT8_C207” value at NUDT8_C207 was determined as 88.75%. In addition, the “% engagement SLC25A20_C89” value at SLC25A20_C89 turned out to be 91%. Further, the “% engagement TMEM256-PLSCR3_C126” value at TMEM256-PLSCR3_C126 was determined as 66%.

As for `C=CC(=O)N1C[C@H](c2ccc(Br)cc2)[C@H]1C(=O)Nc1cccc2cccnc12` [MY-3A, (2S,3S)-1-acryloyl-3-(4-bromophenyl)-N-(quinolin-8-yl)azetidine-2-carboxamide], the “% engagement ESRP1_C551” value at ESRP1_C551 stood at 6.5%. Besides, the “% engagement NUDT8_C207” value at NUDT8_C207 worked out at 64.25%. Further, on SLC25A20_C89, the “% engagement SLC25A20_C89” value stood at 45%. The “% engagement TMEM256-PLSCR3_C126” value on TMEM256-PLSCR3_C126 came to 58%.

On to `C=CC(=O)N1C[C@@H](c2ccc(Br)cc2)[C@H]1C(=O)Nc1cccc2cccnc12` [MY-1A, (2S,3R)-1-acryloyl-3-(4-bromophenyl)-N-(quinolin-8-yl)azetidine-2-carboxamide], for which the “% engagement ESRP1_C551” value at ESRP1_C551 is recorded as 51%. On NUDT8_C207, the “% engagement NUDT8_C207” value is listed as 71.5%. On SLC25A20_C89, the “% engagement SLC25A20_C89” value turned out to be 9.5%. For the same compound, the “% engagement TMEM256-PLSCR3_C126” value on TMEM256-PLSCR3_C126 came out at 81%.
